Assay [1] has as its system MDA-MB-231. As to the kind of experiment: Antiproliferative activity against human MDA-MB-231 cells assessed as reduction in cell viability after 72 hrs by SRB assay. The format is functional, cell-based. As to conditions: MDA-MB-231, 72 h. In general terms: In SRB staining, fixed cells bind dye roughly in proportion to their protein.
The next assay deals with KB. As to the kind of experiment: Antiproliferative activity against human KB cells assessed as reduction in cell viability after 72 hrs by SRB assay. The class given is functional, cell-based.
Assay [2] in a line: Antiproliferative activity against human KB-VIN cells assessed as reduction in cell viability after 72 hrs by SRB assay. As to conditions: KBVIN. The format is functional, cell-based.
A further assay deals with MCF7. Kind of assay: Antiproliferative activity against human MCF7 cells assessed as reduction in cell viability after 72 hrs by SRB assay. The format is functional, cell-based. Particulars: MCF7, 72 h.
The subject of the next assay is A549. As to the kind of experiment: Antiproliferative activity against human A549 cells assessed as reduction in cell viability after 72 hrs by SRB assay. The class given is functional, cell-based. As to conditions: A549, 72 h.
A short description of assay [3]: Selectivity ratio of IC50 for antiproliferative activity against human KB cells to IC50 for antiproliferative activity against KB-VIN cells. The class given is functional.
The test system of assay [4] is MDA-MB-231. As to the kind of experiment: Induction of cell cycle arrest in human MDA-MB-231 cells assessed as accumulation at S phase at 21 uM measured after 24 hrs by propidium iodide staining based flow cytometry analysis. The class given is functional. In general terms: Flow cytometry measures light scatter and fluorescence of single cells or particles in a stream.

In assay [5] the test system is Human immunodeficiency virus 1. As to the kind of experiment: Antiviral activity against HIV-1 NL4-3 infected in human MT4 cells measured on day 3 by Nano-Glo luciferase assay. As to conditions: time 3.0 day. The format is functional, organism-based.

The values that follow come from ChEMBL document CHEMBL4665825, “Paliasanines A-E, 3,4-Methylenedioxyquinoline Alkaloids Fused with a Phenyl-14-oxabicyclo[3.2.1]octane Unit from Melochia umbellata var. deglabrata” (J Nat Prod, 2020).

The source made the active and inactive calls. The rule behind the calls is not given here. Where only a bound is given, the exact number is not on record here.

On to `COc1ccccc1[C@]1(O)c2ccc3nc(C)c4c(c3c2[C@@H]2CC[C@H]1O2)OCO4`, for which the IC50 (with MDA-MB-231 [1]; with KB; in assay [2]; with MCF7; in the assay on A549) was > 10 µM each time.

Consider `CC(=O)/C=C/[C@]1(O)C(C)(C)C[C@H](O)C[C@@]1(C)O`, for which the IC50 (in the assay with MDA-MB-231 [1]; with KB; in assay [2]; in the assay on MCF7; with A549) was > 10 µM throughout.

On to `CC(=O)O[C@H]1C(=O)[C@@]2(C)[C@H]([C@H](OC(=O)c3ccccc3)[C@]3(O)C[C@H](OC(=O)[C@H](O)[C@@H](NC(=O)c4ccccc4)c4ccccc4)C(C)=C1C3(C)C)[C@]1(OC(C)=O)CO[C@@H]1C[C@@H]2O` [PACLITAXEL], for which the IC50 (in general, the concentration that inhibits the measured activity by half) in the assay on KB was found to be 0.0077 µM; in assay [2], 2.35 µM; in the assay on MCF7, 0.0135 µM; in the assay on A549 it was 0.0065 µM.

As to `COc1ccc(OC)c([C@@]2(O)c3ccc4[nH]c(C)c(OC)c(=O)c4c3[C@@H]3CC[C@H]2O3)c1`, the IC50 is > 10 µM in the assay with MDA-MB-231 [1]; > 10 µM in the assay on KB; > 10 µM in assay [2]; 8.2 µM in the assay with MCF7; 5.9 µM in the assay on A549.

As to `CC1=CC(=O)CC(C)(C)[C@@]1(O)/C=C/[C@@H](C)O` [BLUMENOL A], the half-maximal inhibitory concentration (IC50) (with MDA-MB-231 [1]; with KB; in assay [2]; with MCF7; with A549) was > 10 µM throughout.

As for `CCCCCCCC[C@H]1CCC(=O)c2[nH]c(C)c(OC)c(=O)c21`, the IC50 came out at 6.7 µM in the assay with MDA-MB-231 [1]; 17.7 µM in the assay with KB; 8.6 µM in assay [2]; 6.4 µM with MCF7; 8.4 µM with A549. Also, the “Ratio IC50” value in assay [3] is 2. For the same compound, the result in the assay with MDA-MB-231 [4] was Active.

For `CC1(C)C[C@H](O)C[C@@]2(C)OC(=O)C=C12` [LOLIOLIDE], the half-inhibitory concentration (IC50) (in the assay on MDA-MB-231 [1]; with KB; in assay [2]; in the assay with MCF7; in the assay with A549) was > 10 µM in each case.

As to `CC1=CC(=O)CC(C)(C)[C@@H]1CC[C@H](C)O`, the IC50 (in the assay on MDA-MB-231 [1]; in the assay on KB; in assay [2]; with MCF7; in the assay with A549) was > 10 µM in each case.

As for `COc1ccc(OC)c([C@]2(O)c3ccc4nc(C)c5c(c4c3[C@@H]3CC[C@H]2O3)OCO5)c1`, the half-inhibitory concentration (IC50) (in the assay with MDA-MB-231 [1]; with KB; in assay [2]; with MCF7; in the assay on A549) was > 10 µM in each case.

With `CCCCCCCCc1ccc(OC)c2[nH]c(C)c(OC)c(=O)c12`, the IC50 (in the assay on MDA-MB-231 [1]; in the assay with KB; in assay [2]; in the assay with MCF7; in the assay on A549) was > 10 µM in each case.

As for `CC(C)[C@@H]1NC(=O)[C@@H](NC(=O)/C=C/c2ccccc2)[C@H](C(C)C)Oc2ccc(cc2)/C=C\NC1=O`, the IC50 (in the assay on MDA-MB-231 [1]; with KB; in assay [2]; in the assay on MCF7; in the assay with A549) was > 10 µM throughout.

In the case of `CC[C@@H](C)[C@@H]1NC(=O)[C@@H](NC(=O)[C@H](Cc2ccccc2)N(C)C)[C@H](C(C)C)Oc2ccc(cc2)/C=C\NC1=O`, the IC50 with MDA-MB-231 [1] was > 10 µM; in the assay with KB it was > 10 µM; in assay [2], > 10 µM; with MCF7 it was > 10 µM; in the assay on A549 it was 9.5 µM.

For `COc1ccccc1[C@@]1(O)c2ccc3nc(C)c4c(c3c2[C@@H]2CC[C@H]1O2)OCO4`, the half-maximal inhibitory concentration (IC50) (in the assay on MDA-MB-231 [1]; in the assay on KB; in assay [2]; with MCF7; with A549) was > 10 µM throughout. Besides, the outcome in assay [5] was inactive.

Turning to `Cc1nc2ccc3c(c2c2c1OCO2)[C@@H]1CC[C@H](O)[C@@]3(c2ccccc2)O1`, the IC50 (in the assay with MDA-MB-231 [1]; with KB; in assay [2]; in the assay with MCF7; with A549) was > 10 µM each time. Also, the outcome in assay [5] was inactive.

Consider `COc1ccc(OC)c([C@@]2(O)c3ccc4nc(C)c5c(c4c3[C@@H]3CC[C@H]2O3)OCO5)c1`, for which the IC50 (in the assay with MDA-MB-231 [1]; in the assay with KB; in assay [2]; with MCF7; in the assay on A549) was > 10 µM in each case. The outcome in assay [5] was inactive.

With `COc1ccccc1[C@@]1(O)c2ccc3[nH]c(C)c(OC)c(=O)c3c2[C@@H]2CC[C@H]1O2`, the 50% inhibitory concentration (IC50) with MDA-MB-231 [1] was > 10 µM; in the assay on KB, > 10 µM; in assay [2], > 10 µM; in the assay on MCF7, 8 µM; in the assay on A549 it was 6.6 µM.
